Data reported in patent US6789546B2, “Filters for preventing or reducing tobacco smoke-associated injury in the aerodigestive tract of a subject” (Technion Research & Development Foundation Ltd., priority 2001, dated 2004).

Experiments:
oral peroxidase (OPO) [1] = format: biochemical, human; conditions: for OPO activity in the presence of aldehydes: 2 mM acetylaldehyde, 80 μM acrolein, 20 μM crotonaldehyde, TS-treated saliva
lymphocytes [2] = experiment: Western immunoblotting analysis of lymphocyte protein carbonylation; format: cell-based, human
Source text: Western Immunoblotting Analysis of Protein Carbonylation: Salivary proteins were separated by SDS-PAGE using a 10% gel and electro-blotted onto nitrocellulose membranes, as previously described (14). The Oxyblot Kit (Intergen Co, Purchase N.Y.) was used with anti-dinitrophenyhydrazine (DNPH) antibodies to label carbonylated proteins. Protein carbonylation levels were then visualized by reacting labelled blots with a secondary HRP-conjugated anti-rabbit antibody followed by ECL detection of secondarily labelled proteins, as previously described (14).
(§1) Lymphocyte Isolation: Blood from 10 consenting, healthy, non-smoking subjects, 5 males and 5 females ranging from 18-55 years of age, was drawn into EDTA-containing vacutainers. Lymphocytes were isolated by Ficoll-Hypaque (Sigma) gradient centrifugation according to the manufacturer's instructions and lymphocytes were suspended at 10^7 cells/ml PBS (Beit-Ha'emek Industries, Israel), and used immediately in experiments.
Treatment of Lymphocytes With TS in the Presence of Saliva: Exposure of lymphocytes to TS was carried out by attaching a Time cigarette (capable of removing particles>[…] in diameter) in which the filter tip was removed to a Cambridge filter which was combined with a vacuum system to aspirate gas-phase TS inside sealed 250 ml flasks containing lymphocytes suspended in 12-15 ml PBS, as previously described (14, 15). A reproducible vacuum was created in the flask and upon application of vacuum for 5 s, 80-100 ml of TS from the lit cigarette was drawn into the flask. […] Saliva treatment of lymphocytes was performed by suspending these in PBS supplemented with 30% (v/v) saliva. Following treatment with the TS of 0.5 cigarettes, flasks were incubated at 37° C. for 20 min in a metabolic shaker and subjected to a further 4 treatments with TS, as described above.
Western Immunoblotting Analysis of Lymphocyte Protein Carbonylation: Lymphocytes were washed twice in PBS following treatment by centrifugation at 2,000 rpm for 2 minutes to remove saliva and other components of the incubation medium. Lymphocytes were then centrifuged at 14,000 rpm for 1 minute and lysed by sonication for 10 seconds in lysis buffer containing 20 mM Tris pH 7.4, 1 mM EGTA, 1 mM PMSF, 50 μM NaVO4 and 50 mM NaF. Lysates were centrifuged at 14,000 rpm for 1 minute and supernatants were harvested for analysis. Carbonylation analysis was performed as described above.

oral peroxidase (OPO) [3] = experiment: OPO activity in saliva exposed in vitro to tobacco smoke (NBS-SCN assay); format: biochemical, human
lymphocytes [4] = experiment: Lymphocyte survival by Trypan Blue exclusion assay; format: cell-based, human
Description: Saliva Collection: Saliva was collected from healthy subjects, 3 males and 3 females ranging from 21-47 years of age, under non-stimulatory conditions in a quiet room during the morning between 8 am and noon. Saliva collection was performed at least 1 h after eating by spitting into a recipient for 10 minutes, as previously described (43). Following collection, saliva was immediately centrifuged at 800×g for 10 min at 4° C. to remove cells and cell debris and the resulting supernatant was used for biochemical analyses.
as §1
A reproducible vacuum was created in the flask and upon application of vacuum for 5 s, 80-100 ml of TS from the lit cigarette was drawn into the flask. […] Saliva treatment of lymphocytes was performed by suspending these in PBS supplemented with 30% (v/v) saliva. Following treatment with the TS of 0.5 cigarettes, flasks were incubated at 37° C. for 20 min in a metabolic shaker and subjected to a further 4 treatments with TS, as described above.
Measurement of Lymphocyte Survival: Lymphocyte viability was assessed by Trypan Blue exclusion assay.

MPO = target: T1, MPO (Homo sapiens, UniProt P05164); experiment: Control MPO activity (commercial MPO) in the presence of dapsone; format: biochemical; conditions: 150 μM dapsone
T1 construct: purchased
T1 sequence (P05164 49-745): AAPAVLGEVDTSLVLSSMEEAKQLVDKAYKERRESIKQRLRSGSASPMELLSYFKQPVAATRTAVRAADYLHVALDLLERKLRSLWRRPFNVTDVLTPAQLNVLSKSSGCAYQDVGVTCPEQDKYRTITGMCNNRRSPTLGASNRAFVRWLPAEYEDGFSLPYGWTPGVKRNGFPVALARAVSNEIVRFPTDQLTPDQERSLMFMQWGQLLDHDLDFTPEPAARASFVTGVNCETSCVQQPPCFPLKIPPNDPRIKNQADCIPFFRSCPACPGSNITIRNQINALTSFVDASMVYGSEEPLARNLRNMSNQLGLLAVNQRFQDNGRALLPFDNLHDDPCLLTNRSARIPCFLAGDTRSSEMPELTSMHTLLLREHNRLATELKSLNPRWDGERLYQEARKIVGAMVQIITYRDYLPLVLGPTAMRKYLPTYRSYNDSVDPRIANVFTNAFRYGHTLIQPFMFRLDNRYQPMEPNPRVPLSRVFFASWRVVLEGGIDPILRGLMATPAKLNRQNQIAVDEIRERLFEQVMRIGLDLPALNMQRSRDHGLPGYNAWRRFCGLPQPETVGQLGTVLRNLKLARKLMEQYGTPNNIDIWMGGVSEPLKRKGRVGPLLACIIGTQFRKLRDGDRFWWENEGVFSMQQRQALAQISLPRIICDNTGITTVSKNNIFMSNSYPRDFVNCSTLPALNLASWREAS
Description: FIG. 7 is a data plot depicting the effect of increasing concentrations of dapsone (4-aminophenylsulfone) on OPO activity in TS-treated saliva. Abbreviations: NO.1, NO.2, NO.3, NO4 and NO.5 correspond to saliva from 5 different subjects and plasma corresponds to commercial MPO.
Analysis of OPO Activity: OPO activity was measured according to the 2-nitrobenzoic-thiocyanate (NBS-SCN) assay, as previously described (20). Briefly, DTNB is reduced to NBS by addition of β-mercaptoethanol and decreases in NBS concentration by reaction with OSCN^−, a product of OPO, are monitored spectrophotometrically by measuring absorbance at 412 nm at pH 5.6 (18). One unit of enzyme activity was defined as the activity required to cleave 1 μmol of NBS/min at 22° C., using a molar extinction coefficient of 12,800 (20).
Thus, in order to determine which of the MPO or SPO activity components of OPO activity are lost as a result of exposure to TS, OPO activity in TS-treated saliva was measured in the presence of increasing concentrations of 50-150 μM dapsone.

[5] = lymphocytes in PBS, 20 minutes, 80 μM acrolein, 20 μM crotonaldehyde or 2 mM acetaldehyde

## [Cl][Fe]([Cl])[Cl] [FeCl3]
Oral peroxidase (OPO) [1]; saliva exposed 2 h to 1 mM ascorbate or 100 μM FeCl3
  inhibition of OPO activity: did not inhibit OPO activity

## N[C@@H](CCC(=O)N[C@@H](CS)C(=O)NCC(=O)O)C(=O)O [GSH, L-γ-glutamyl-1-cysteine-glycine]
Lymphocytes [2]; TS and saliva, 20 minutes, 1 mM agent (FIG. 20)
  protection assessed by lymphocyte protein carbonylation levels: unique protection
Lymphocytes [2]; aldehydes + 1 mM GSH, 20 min (FIG. 21)
  protection from aldehyde-induced protein carbonylation: protection provided by GSH was similar
Oral peroxidase (OPO) [3]; 1 mM agent
  loss of OPO activity in TS-treated saliva in the presence or absence of the agent: similar
Lymphocytes [4]
  effect on death rate of lymphocytes exposed to TS and saliva: partially prevented

## N#C[S-].[K+] [KSCN, potassium thiocyanate]
Oral peroxidase (OPO) [3]
  protection against TS-induced loss of OPO activity: significant protection against loss of OPO activity

## CC(=O)N[C@@H](CS)C(=O)O [NAC, N-acetylcysteine]
Lymphocytes [4]
  effect on death rate of lymphocytes exposed to TS and saliva: did not alter the death rate

## C/C1=C2/[N-][C@H]([C@H](CC(N)=O)[C@@]2(C)CCC(=O)NC[C@@H](C)OP(=O)([O-])O[C@H]2[C@@H](O)[C@@H](n3cnc4cc(C)c(C)cc43)O[C@@H]2CO)[C@]2(C)N=C(/C(C)=C3N=C(/C=C4N=C1[C@@H](CCC(N)=O)C\4(C)C)[C@@H](CCC(N)=O)[C@]\3(C)CC(N)=O)[C@@H](CCC(N)=O)[C@]2(C)CC(N)=O.[Co+3].[OH-] [OH—CO, hydroxocobalamin]
Oral peroxidase (OPO) [3]; increasing amounts of OH—CO (0.5, 1, 2 mM, FIG. 14), 40 min after treatment with TS
  prevention of loss of OPO activity in saliva: prevent, to a significant extent
Oral peroxidase (OPO) [3]; preincubation of saliva with OH—CO, TS or KCN
  prevention of loss of OPO activity by preincubation: could prevent both TS- and KCN-associated loss of OPO activity
Oral peroxidase (OPO) [1]; 1 mM OH—CO, saliva treated 2 min with 1 mM KCN
  prevention of KCN-associated loss of OPO activity: completely prevent

## CC=O [acetaldehyde]
Oral peroxidase (OPO) [1]
  OPO activity in the presence of aldehydes: unaffected
Lymphocytes [4]; both, human
  death rates: 92.7%

## C=CC=O [acrolein]
Lymphocytes [2]; acrolein with saliva versus acrolein alone (FIG. 22: 80 μM, 20 min)
  lymphocyte protein carbonylation levels: did not enhance carbonylation levels
Oral peroxidase (OPO) [1]
  OPO activity in the presence of aldehydes: unaffected
Lymphocytes [4]; acrolein, first value of 'respectively' (taken as without saliva), time not given
  survival rates: 57.9%
Lymphocytes [4]; acrolein, second value of 'respectively' (taken as with saliva), time not given
  survival rates: 66.4%
Lymphocytes [4]; [5]
  survival rates: 63.3%
Lymphocytes [4]; lymphocytes in PBS, 80 minutes, 80 μM acrolein, 20 μM crotonaldehyde or 2 mM acetaldehyde
  death rates: 57.3%

## O=C1O[C@H]([C@@H](O)CO)C(O)=C1O [ascorbate]
Lymphocytes [4]; ascorbate (1 mM) added to PBS containing FeCl3 (90 μM), no saliva, 20 min (FIG. 23 column 8)
  lymphocyte survival rate: 77%
Lymphocytes [4]; ascorbate (1 mM) added to saliva-containing medium without exposure to TS, 20 min (FIG. 23 column 6)
  lymphocyte survival rate: 78%

## C/C=C/C=O [crotonaldehyde]
Oral peroxidase (OPO) [1]
  OPO activity in the presence of aldehydes: unaffected
Lymphocytes [4]; both, human
  death rates: 75.3%
Lymphocytes [4]; [5]
  survival rates: 80.3%

## Nc1ccc(S(=O)(=O)c2ccc(N)cc2)cc1 [dapsone, 4-aminophenylsulfone]
Oral peroxidase (OPO) [3]; TS-treated saliva containing ~40% MPO, 150 μM dapsone
  loss of OPO activity in the presence or absence of the agent: similar
Oral peroxidase (OPO) [3]; TS-treated saliva in the presence of 150 μM dapsone
  Loss of OPO activity: 60-85%
MPO
  control MPO activity: unaffected

## CC(=O)N(O)CCCCCNC(=O)CCC(=O)N(O)CCCCCNC(=O)CCC(=O)N(O)CCCCCN [deferoxamine]
Lymphocytes [4]; TS and saliva treatment, 80 minutes, 1 mM agent
  lymphocyte survival rate: 23.7%

## O=c1[nH]c(=O)c2[nH]c(=O)[nH]c2[nH]1 [uric acid]
Lymphocytes [2]; uric acid added to suspension medium instead of saliva (10 or 100 μM, FIG. 18), no TS
  lymphocyte protein carbonylation levels: reduced carbonylation levels
